Reference: patent US10258617B2, “Dosing regimens for fast onset of antidepressant effect” (H. Lundbeck A/S, priority 2016, dated 2019)
Like-named read-outs stand apart in the source and are kept apart here.

Experiments:
[1] = target: T1, serotonin transporter (SERT) (Macaca mulatta, UniProt Q9MYX0); test: Example 1 PET monkey study: SERT occupancy with [11C]MADAM; format: in vivo, rhesus monkeys; conditions: rhesus monkey, iv, monkey brain
T1 construct: serotonin transporter occupancy in the monkey brain using the SERT radio-ligand; from tissue; host or cells: brain of living rhesus monkeys (PET)
Text: (§1) Positron Emission Tomography (PET) was used to assess changes in the endogenous serotonin concentration in living rhesus monkeys. The objective of the present study was two-fold. […] The chemical name for [^11C]MADAM is [^11C] N,N-dimethyl-2-(2-amino-4-methylphenylthio)benzylamine.
(§2) FIG. 1 illustrates the study design used for assessment of serotonin releasing capacities. A similar study design was applied for assessment of SERT occupancy.

5-HT1B receptor = target: T2, 5-HT1B receptor (Macaca mulatta, UniProt F6SFA9); test: Example 1 PET monkey study: change in [11C]AZ10419369-5-HT1B receptor binding potential (BPND); format: in vivo, rhesus monkeys; conditions: rhesus monkey, iv, mean±standard error, n=3, read-out: ΔBPND (% of baseline); for change in vivo at 0.3 mg/kg: Vortioxetine 0.3 mg/kg IV; for change in vivo at 1 mg/kg: Vortioxetine 1.0 mg/kg IV
T2 construct: assess changes in the endogenous serotonin concentration in living rhesus monkeys; from tissue; host or cells: brain of living rhesus monkeys (PET)
Text: as §1, §2

depression = conditions: FDA label of July 2014; oral treatment; cited from earlier work
[2] = cited from earlier work

T2 sequence (F6SFA9 1-390): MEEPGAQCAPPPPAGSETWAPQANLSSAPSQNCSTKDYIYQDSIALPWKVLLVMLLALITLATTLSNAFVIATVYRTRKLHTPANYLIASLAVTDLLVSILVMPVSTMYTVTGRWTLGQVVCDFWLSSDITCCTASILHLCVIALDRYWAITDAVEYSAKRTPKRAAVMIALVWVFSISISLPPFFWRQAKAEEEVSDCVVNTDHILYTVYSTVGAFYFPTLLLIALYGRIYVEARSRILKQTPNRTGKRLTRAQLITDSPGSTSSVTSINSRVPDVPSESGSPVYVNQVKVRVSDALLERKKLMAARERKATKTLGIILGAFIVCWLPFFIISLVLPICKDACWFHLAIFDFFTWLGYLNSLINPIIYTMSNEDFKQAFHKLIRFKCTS
T1 sequence (Q9MYX0 whole entry): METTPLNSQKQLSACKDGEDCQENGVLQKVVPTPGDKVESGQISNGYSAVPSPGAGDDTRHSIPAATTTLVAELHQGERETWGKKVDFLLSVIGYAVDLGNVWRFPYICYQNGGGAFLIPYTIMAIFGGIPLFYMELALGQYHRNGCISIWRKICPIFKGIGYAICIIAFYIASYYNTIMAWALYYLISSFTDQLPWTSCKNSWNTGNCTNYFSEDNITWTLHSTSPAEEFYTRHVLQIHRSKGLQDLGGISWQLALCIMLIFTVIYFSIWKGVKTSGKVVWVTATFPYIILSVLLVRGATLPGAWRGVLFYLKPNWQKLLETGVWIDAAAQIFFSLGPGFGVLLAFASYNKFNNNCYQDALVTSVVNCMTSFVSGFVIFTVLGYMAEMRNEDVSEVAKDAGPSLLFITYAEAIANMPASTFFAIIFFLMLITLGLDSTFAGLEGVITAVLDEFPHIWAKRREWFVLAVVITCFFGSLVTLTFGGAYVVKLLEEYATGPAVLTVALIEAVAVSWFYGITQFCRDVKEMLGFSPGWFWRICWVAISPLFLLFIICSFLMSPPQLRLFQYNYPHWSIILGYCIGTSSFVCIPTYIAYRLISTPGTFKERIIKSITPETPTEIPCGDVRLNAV

Cc1ccc(Sc2ccccc2N2CCNCC2)c(C)c1 [Vortioxetine, 1-[2-(2,4-dimethyl-phenylsulfanyl)-phenyl]piperazine]
receptor occupancy at 0.3 mg/kg ([1]; vortioxetine 0.3 mg/kg intravenously): ~50% | receptor occupancy at 1 mg/kg ([1]; vortioxetine 1.0 mg/kg intravenously): ~80% | change in vivo at 0.3 mg/kg (5-HT1B receptor; Amygdala): -12.4 ± 10.5% | change in vivo at 1 mg/kg (5-HT1B receptor; Amygdala): -39.5 ± 11.5% | change in vivo at 0.3 mg/kg (5-HT1B receptor; Caudate nucleus): -23.2 ± 7.4% | change in vivo at 1 mg/kg (5-HT1B receptor; Caudate nucleus): -47 ± 8% | change in vivo at 0.3 mg/kg (5-HT1B receptor; Dorsal raphe nucleus): -28.3 ± 13.6% | change in vivo at 1 mg/kg (5-HT1B receptor; Dorsal raphe nucleus): -55 ± 3.3% | change in vivo at 0.3 mg/kg (5-HT1B receptor; Frontal gyrus): -8.2 ± 8.2% | change in vivo at 1 mg/kg (5-HT1B receptor; Frontal gyrus): -32.8 ± 9.5% | change in vivo at 0.3 mg/kg (5-HT1B receptor; Globus pallidus): -16.3 ± 5.1% | change in vivo at 1 mg/kg (5-HT1B receptor; Globus pallidus): -41.2 ± 6.4% | change in vivo at 0.3 mg/kg (5-HT1B receptor; Hippocampus): -9.4 ± 8.9% | change in vivo at 1 mg/kg (5-HT1B receptor; Hippocampus): -27 ± 6.8% | change in vivo at 0.3 mg/kg (5-HT1B receptor; Midbrain): -21.9 ± 3% | change in vivo at 1 mg/kg (5-HT1B receptor; Midbrain): -49.4 ± 7.1% | change in vivo at 0.3 mg/kg (5-HT1B receptor; Occipital gyrup): -24.3 ± 3.2% | change in vivo at 1 mg/kg (5-HT1B receptor; Occipital gyrup): -54.1 ± 4.2% | change in vivo at 0.3 mg/kg (5-HT1B receptor; Putamen): -15.6 ± 8.5% | change in vivo at 1 mg/kg (5-HT1B receptor; Putamen): -40.8 ± 7.9% | change in vivo at 0.3 mg/kg (5-HT1B receptor; Thalamus): -23.9 ± 5% | change in vivo at 1 mg/kg (5-HT1B receptor; Thalamus): -42.5 ± 7% | change in vivo at 0.3 mg/kg (5-HT1B receptor; Ventral striatum): -25.6 ± 5.4% | change in vivo at 1 mg/kg (5-HT1B receptor; Ventral striatum): -47.7 ± 8.5% | effect of vortioxetine is observed starting at week (depression): 2 week | full antidepressant effect not seen until week (depression): ≥ 4 week | steady-state plasma level (median AUC0-24) ([2]; once daily oral 5 mg): 161 ng·h/mL | steady-state plasma level (median AUC0-24) ([2]; once daily oral 10 mg): 323 ng·h/mL | steady-state plasma level (median AUC0-24) ([2]; once daily oral 15 mg): 484 ng·h/mL | steady-state plasma level (median AUC0-24) ([2]; once daily oral 20 mg): 645 ng·h/mL | time until steady-state plasma concentration is achieved ([2]; once daily oral administration): approximately 8 days
